Experimental data: PubChem BioAssay (NCI)
Where “and” joins values, the source holds several entries; their conditions need not be identical. Equal entries are not always repeated.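 Interpolation was linear, between the two tested concentrations surrounding the appropriate level; five concentrations were tested over 48 hours in 96-well plates. Here, GI50 denotes the concentration required for 50% inhibition of growth. TGI is the concentration that stops growth completely.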

Columns and labels:
Assay in all cases: NCI anticancer screen, dose series, 48 h
786-0 renal = test system: 786-0 renal
A498 renal = test system: A498 renal
CAKI-1 renal = test system: CAKI-1 renal
KM12 colon = test system: KM12 colon
MALME-3M melanoma = test system: MALME-3M melanoma
NCI-H23 lung = test system: NCI-H23 lung
SF-295 CNS = test system: SF-295 CNS
SNB-19 CNS = test system: SNB-19 CNS
SNB-75 CNS = test system: SNB-75 CNS
UACC-62 melanoma = test system: UACC-62 melanoma

Row | Compound | TGI (786-0 renal) | TGI (A498 renal) | TGI (CAKI-1 renal) | TGI (KM12 colon) | TGI (MALME-3M melanoma) | TGI (NCI-H23 lung) | TGI (SF-295 CNS) | TGI (SNB-19 CNS) | TGI (SNB-75 CNS) | TGI (UACC-62 melanoma) | GI50 (786-0 renal) | GI50 (A498 renal) | GI50 (CAKI-1 renal) | GI50 (KM12 colon) | GI50 (MALME-3M melanoma) | GI50 (NCI-H23 lung) | GI50 (SF-295 CNS) | GI50 (SNB-19 CNS) | GI50 (SNB-75 CNS) | GI50 (UACC-62 melanoma)
1 | C=C1C(=O)OC2C1C(OC(=O)/C(C)=C/C)CC(O)(CCl)C1C(O)C3OC3(C)C21O (centres undefined) | 39 µM | > 50 µM | > 50 µM | > 50 µM | 10.6 µM | > 50 µM | > 50 µM | > 50 µM | > 50 µM | > 50 µM |  |  |  |  |  |  |  |  |  | 
2 | CCOc1cc2ncc(C#N)c(Nc3ccc(OCc4ccccn4)c(Cl)c3)c2cc1NC(=O)/C=C/CN(C)C | 2.81 µM |  | 12.5 µM and > 9.09 µM | 5.29 µM and > 7.34 µM | 2.59 µM | 22.2 µM and > 10 µM | 34.7 µM and > 10 µM | 22.9 µM and > 10 µM | 5.87 µM and > 5.3 µM | 3.87 µM and > 10 µM | 0.755 µM | 0.124 µM and 0.153 µM | 0.0564 µM and 0.146 µM | 1.52 µM and 1.98 µM | 0.61 µM | 2.63 µM and > 4.56 µM | 10.9 µM and > 4.59 µM | 2.52 µM | 0.915 µM and 0.362 µM | 1.28 µM and 0.842 µM
3 | Cn1cc(C2=C(c3cccc(OCC(O)CO)c3)C(=O)NC2=O)c2ccccc21 (centres undefined) | > 25 µM | > 25 µM | > 25 µM | > 25 µM | > 25 µM | > 25 µM | > 25 µM | > 25 µM | > 25 µM | > 25 µM | > 25 µM | > 25 µM | > 25 µM | > 25 µM | > 25 µM | > 25 µM | > 25 µM | > 25 µM | 5.86 µM | > 25 µM
4 | Cc1cccc(C(C)C)c1NC(=O)CC1C(=O)Nc2ccccc2S1(=O)=O (centres undefined) | 39.5 µM | > 54.2 µM | > 50 µM | 73.9 µM | 50.9 µM | 31.3 µM | 67.1 µM | > 68 µM | > 69 µM | > 51.1 µM |  |  |  |  |  |  |  |  |  | 
5 | COc1cc(/C=C2\Sc3scc(-c4cccc([N+](=O)[O-])c4)[n+]3C2=O)cc(OC)c1OC | 22.2 µM | > 100 µM | 17.8 µM | 41.6 µM | 28.4 µM | 33.2 µM | 39.5 µM | 46.5 µM | 8.77 µM | 24.2 µM |  |  |  |  |  |  |  |  |  | 
6 | CC(C)c1cccc2sc(NC(=O)C(=O)C(C#N)c3cccc4ccccc34)nc12 (centres undefined) | > 100 µM | > 100 µM | > 100 µM | > 100 µM | > 100 µM | > 100 µM | > 100 µM | > 100 µM | 95.4 µM | > 100 µM |  |  |  |  |  |  |  |  |  | 
7 | COc1ccc(/C=C2\CCCC3=C2NC(N)=NC3c2ccc(OC)c(OC)c2)cc1OC (centres undefined) | > 100 µM | > 82.6 µM | > 100 µM | > 100 µM | > 70.2 µM | > 100 µM | > 100 µM | > 100 µM | 13.8 µM | > 100 µM | 14.2 µM | 13.1 µM | 4.11 µM | 6.87 µM | 23.7 µM | 7.33 µM | 8.69 µM | > 88.7 µM | 2.41 µM | 10.9 µM
8 | CC1=C(CO)C(=O)O[C@@H]([C@@H](C)[C@H]2CC[C@H]3[C@@H]4C[C@@H](O)[C@@]5(O)CC=CC(=O)[C@]5(C)[C@H]4CC[C@]23C)C1 | 90.8 µM | 39.5 µM | > 100 µM | 58.8 µM | 44.7 µM | 49.4 µM | > 100 µM | > 100 µM | > 100 µM | > 100 µM |  |  |  |  |  |  |  |  |  | 
9 | O=C(c1ccccc1)c1cccc(C(=O)c2ccccc2)c1 | > 100 µM | > 100 µM | > 100 µM | > 100 µM | > 100 µM | > 100 µM | > 100 µM | > 100 µM | > 100 µM | > 100 µM |  |  |  |  |  |  |  |  |  | 
